Data reported in patent publication US20130065763A1, “Biocide Compositions Comprising Isoamyl Lactate” (priority 2010, published 2013).

Experiment: Solubility in water of each lactate
Format: physicochemical
Details: for Solubility in Water: solubility of the lactate solvent in water, yes = water soluble
Description: Solubility of several pesticides was measured in Isoamyl lactate versus other lactates. In addition the solubility in water of each lactate has been checked.

Row | Solubility in Water | Water solubility (statement in description) | Compound
1 | <1% | not water soluble | CC(C)CCOC(=O)C(C)O (stereo not shown) [Example 6, Isoamyl lactate]
2 | yes | – | CCCCOC(=O)C(C)O (stereo not shown) [Example C3, Butyl lactate]
3 | yes | – | CC(C)OC(=O)C(C)O (stereo not shown) [Example C4, Isopropyl lactate]
